Source: PubChem BioAssay (NCI)
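A five-concentration, 48-hour dose response in 96-well plates underlies each endpoint, interpolated linearly between surrounding concentrations. At the TGI there is no net growth.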

Experiments:
Experiment in all cases: NCI anticancer screen, dose series, 48 h
NCI-H522 lung = system: NCI-H522 lung
COLO 205 colon = system: COLO 205 colon
NCI/ADR-RES ovarian = system: NCI/ADR-RES ovarian
786-0 renal = system: 786-0 renal
OVCAR-4 ovarian = system: OVCAR-4 ovarian
SNB-75 CNS = system: SNB-75 CNS
NCI-H226 lung = system: NCI-H226 lung
MDA-N = system: MDA-N
OVCAR-5 ovarian = system: OVCAR-5 ovarian
NCI-H460 lung = system: NCI-H460 lung
HOP-92 NSCLC = system: HOP-92 NSCLC
SF-295 CNS = system: SF-295 CNS
TK-10 renal = system: TK-10 renal
IGROV1 ovarian = system: IGROV1 ovarian
HS 578T breast = system: HS 578T breast
HCT-116 colon = system: HCT-116 colon
SF-268 CNS = system: SF-268 CNS
BT-549 breast = system: BT-549 breast
RXF 393 renal = system: RXF 393 renal
NCI-H23 lung = system: NCI-H23 lung
MDA-MB-231 breast = system: MDA-MB-231 breast
K-562 leukemia = system: K-562 leukemia
SK-MEL-2 melanoma = system: SK-MEL-2 melanoma
MALME-3M melanoma = system: MALME-3M melanoma
LOX IMVI melanoma = system: LOX IMVI melanoma
HCC-2998 colon = system: HCC-2998 colon
ACHN renal = system: ACHN renal
UACC-62 melanoma = system: UACC-62 melanoma
CAKI-1 renal = system: CAKI-1 renal
MOLT-4 leukemia = system: MOLT-4 leukemia
MCF7 breast = system: MCF7 breast
UO-31 renal = system: UO-31 renal
HCT-15 colon = system: HCT-15 colon
SNB-19 CNS = system: SNB-19 CNS
PC-3 prostate = system: PC-3 prostate
HT29 colon = system: HT29 colon
RPMI-8226 leukemia = system: RPMI-8226 leukemia
OVCAR-3 ovarian = system: OVCAR-3 ovarian
KM12 colon = system: KM12 colon
OVCAR-8 ovarian = system: OVCAR-8 ovarian
SK-MEL-28 melanoma = system: SK-MEL-28 melanoma
MDA-MB-435 = system: MDA-MB-435
U251 CNS = system: U251 CNS
HOP-62 NSCLC = system: HOP-62 NSCLC
UACC-257 melanoma = system: UACC-257 melanoma
SK-MEL-5 melanoma = system: SK-MEL-5 melanoma
SK-OV-3 ovarian = system: SK-OV-3 ovarian
DU-145 prostate = system: DU-145 prostate
A498 renal = system: A498 renal
T-47D breast = system: T-47D breast
HL-60(TB) leukemia = system: HL-60(TB) leukemia
M14 melanoma = system: M14 melanoma
SN12C renal = system: SN12C renal
SW-620 colon = system: SW-620 colon
EKVX NSCLC = system: EKVX NSCLC
A549 NSCLC = system: A549 NSCLC

Measured: TGI

COP(=O)(/C=C/C(NC(=O)C(Cl)(Cl)Cl)c1ccccc1)OC (stereo unspecified)
> 100 µM: all assays above
